Entries after “also recorded” stand apart in the source; their conditions may differ. Where a SMILES comes first, the peptide text is derived from it. Bridges are numbered along the chain shown (N, C = ends). The star is where a group is joined. Cy5(nonsulfonated) = CN1C(=CC=CC=CC2=[N+](CCCCCC(=O)*)c3ccccc3C2(C)C)C(C)(C)c2ccccc21
Target: T1, ADAMTS1 (Homo sapiens, UniProt Q9UHI8)
T1 construct: His; purchased BioTeZ Berlin-Buch GmbH 30 400 402
T1 sequence (Q9UHI8 253-967): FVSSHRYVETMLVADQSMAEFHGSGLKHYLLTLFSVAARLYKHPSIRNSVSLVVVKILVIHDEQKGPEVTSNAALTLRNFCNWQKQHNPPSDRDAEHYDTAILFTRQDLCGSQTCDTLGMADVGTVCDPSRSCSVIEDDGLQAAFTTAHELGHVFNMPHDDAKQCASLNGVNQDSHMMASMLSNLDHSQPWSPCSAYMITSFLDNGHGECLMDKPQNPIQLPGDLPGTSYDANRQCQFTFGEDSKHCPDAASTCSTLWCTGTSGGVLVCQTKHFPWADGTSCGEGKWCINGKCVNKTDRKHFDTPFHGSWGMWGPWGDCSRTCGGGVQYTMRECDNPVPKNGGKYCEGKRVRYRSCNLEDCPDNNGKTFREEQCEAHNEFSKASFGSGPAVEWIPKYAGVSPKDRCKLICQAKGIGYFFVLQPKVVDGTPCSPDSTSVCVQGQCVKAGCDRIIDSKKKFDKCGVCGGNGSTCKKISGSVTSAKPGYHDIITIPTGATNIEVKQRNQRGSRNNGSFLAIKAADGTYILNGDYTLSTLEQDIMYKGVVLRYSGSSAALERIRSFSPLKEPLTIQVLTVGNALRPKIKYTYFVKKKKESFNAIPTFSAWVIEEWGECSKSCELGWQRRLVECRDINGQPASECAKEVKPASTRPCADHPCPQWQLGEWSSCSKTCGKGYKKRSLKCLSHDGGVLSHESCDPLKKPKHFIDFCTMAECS
Test: MST instrument, ligand-dependent fluorescence change, Cy5-labeled peptide vs ADAMTS1
Assay type: binding
Conditions: Cy5-labeled peptide 3 nM, ADAMTS1 starting concentration 4.88 µM, n = 3
Method: Microscale thermophoresis (MST) was performed on a Monolith Pico (NanoTemper, Munich, Germany). The Cy5-labeled peptides were diluted into the MST buffer (150 mM NaCl, 50 mM TRIS-HCl, 5 mM CaCl2, and Tween-20) to reach a dilution of 6 nM. ADAMTS4, ADAMTS5, and ADAMTS1 were directly used with the supplied concentration. For ADAMTS4, the starting concentration was 4.96 µM, while for ADAMTS1 it was 4.88 µM and for ADAMTS5 it was 2.46 µM. Since we saw a loss of binding after centrifugation, the use of protein concentrators were inappropriate. 20 µl of the protein solutions were transferred into a PCR tube. 10 µl of this first vial was transferred into a second vial and mixed by pipetting with 10 µl of the MST buffer. […] The capillaries were transferred into the Monolith tray and measured with 10% excitation power on the pico-red excitation on high MST power at 25 °C. […] We detected a ligand-dependent fluorescence change for some of the systems. We checked for ADAMTS4 and the ADAMTS4-specific-Cy5-labeled probe via a saturation test for specifying the ligand-dependent fluorescence change. […] The samples were heated at 95 °C for 5 min and measured in the MST. The fluorescence difference between the concentrations was afterward at the same level. Each measurement was repeated three times independently and the binding constant was calculated by merging all three measurements. […]

C[N+]1=C(C=CC=CC=C2N(CCCCCC(=O)NCCCC[C@H](NC(=O)CNC(=O)CNC(=O)[C@H](CO)NC(=O)CNC(=O)CNC(=O)[C@H](CO)NC(=O)[C@@H]3CSSC[C@H](N)C(=O)N[C@@H](CO)C(=O)N[C@@H](CCCNC(=N)N)C(=O)N[C@@H](CCCNC(=N)N)C(=O)NCC(=O)N3)C(=O)NCC(N)=O)c3ccccc3C2(C)C)C(C)(C)c2ccccc21 [Cy5-labeled probe] (H-CSRRGCSGGSGGK(Cy5(nonsulfonated))G-NH2; disulfide 1-6; N-terminus and C-terminus assumed)
binding to ADAMTS1, in words: determination of the binding constant is not possible; also recorded: plateau was not reached; also recorded: a ligand dependent fluorescence change occurs

Reference: article PMC9126943, “ADAMTS4-specific MR probe to assess aortic aneurysms in vivo using synthetic peptide libraries” (Nature Communications, 2022)
